Experimental data reported in patent publication EP2949339A1, “Agonist of CD1c-restricted T cells and uses thereof” (Ospedale San Raffaele S.r.l., priority 2014, dated 2015).

Legend:
[1] = system: CD1c self-reactive T cells; test: T cell activation assay with lipid-pulsed CD1c+ APCs (GM-CSF and/or IFN-γ release, ELISA); assay type: cell-based, human; details: same T cells; data not shown
Procedure: T cell activation assays were performed by co-culturing the indicated numbers of target cells (5x10^4/well unless otherwise indicated) with T cells (5x10^4/well) in 200µl volume in duplicate or triplicate cultures. In some experiments, mouse anti-CD1c (L161, Abcam) or mouse IgG1 isotype control mAbs were added and incubated for 30 min prior to the addition of T cells. Supernatants were collected after 24-48 hours and cytokines released by T cells (GM-CSF and/or IFN-γ) were measured by ELISA. In assays using fractionated lipids, THP1-CD1c cells (5x10^4/well) were fixed with 0.05% glutaraldehyde for 20 s and used as APCs. Fold change in cytokine release was calculated using the following formula: GM-CSF release with lipid pulsed APC / GM-CSF release with un-pulsed APC. In some experiments, normal B cells purified from PBMCs (5x10^4/well) were used as APCs without prior fixation. APCs were pulsed with lipids for 4 hours at the indicated dilutions before addition of T cells.

[2] = system: CD1c self-reactive T cells; test: sCD1c-plate-bound T cell activation assay; assay type: cell-based, human; details: CD1c self-reactive clones DN4.99, K34A27f; GM-CSF release; Fig. 1E, 3 C
Procedure: sCD1c-plate-bound assays were performed using MaxiSorp plates (Nunc) coated with anti-BirA mAb (Nowbakht et al., 2005) to capture sCD1c and were then incubated with lipids for 6 hours. The wells were extensively washed before addition of T cells.
Recombinant soluble human CD1c tagged with BirA peptide (sCD1c), was obtained and purified using techniques similar to those previously described (Garcia-Alles et al., 2006). The following primers were used to PCR amplify the extracellular domain of human CD1c: forward XhoI 5'- […] (SEQ ID No. 3) and reverse ClaI 5'-[…] (SEQ ID No. 4). sCD1c was purified from J558-transfected cell culture supernatants by affinity chromatography using anti-CD1c mAb (10C3, BD Pharmingen).

lysophosphatidic acid [LPA]
doses at which T cells were very weakly stimulated [1]: above 50 µg/ml

lysophosphatidylcholine [LPC]
doses at which T cells were very weakly stimulated [1]: above 50 µg/ml

lysophosphatidylethanolamine [LPE]
doses at which T cells were very weakly stimulated [1]: above 50 µg/ml

sulfatide
stimulation of T cells by lipid presented by plastic-bound sCD1c [2]: failed to stimulate
